This is an account of results in a melting point compilation (Tetko et al.; mined from patent text by program, amines drawn as free bases though some values may be those of a salt).

Structures are written as SMILES.

On to `COc1ccc(N(c2ccccc2)c2ccc(-c3ccc(-c4ccc(N(c5ccccc5)c5ccc(OC)cc5C)cc4)cc3)cc2)c(C)c1`, for which the melting point (as a rule, the temperature of the solid-liquid transition) lay in the range of 181 to 183 °C.

`CCN(CC)CC(O)CNC(=O)c1c(OC(=O)c2ccccc2)c2ccccc2n1-c1ccccc1` (stereo not given) came in with a melting point of 130 to 133 °C.

`CCOc1nn(-c2cccc3c2OC(C)(C)C3)c(=O)o1` returned a melting point of 72 to 74 °C.

Turning to `CC1CN(Cc2ccccc2)C(=O)C(=C2SC=CS2)C1=O` (stereo not given), the melting point lay in the range of 168 to 170 °C.

Turning to `O=C1C(c2ccccc2)OC(=S)N1Nc1ccccc1` (stereo not given), the melting point fell in the range of 140 to 141 °C.

The compound `CSC1C(=O)Nc2c(C(=O)c3ccccc3)cccc21` (stereo not given) returned a melting point of 130 °C.

The compound `CCCCCCCCCCCCCCCCC(=O)n1cc(F)c(=O)[nH]c1=O` had a melting point of 102 °C.

As to `COc1ccc(C#Cc2cc(C(=O)O)nc(C(=O)O)c2)cc1`, the melting point was over 300 °C.

`Cc1ccccc1-c1cnc(Nc2ccccn2)s1` had a melting point of 155 to 160 °C.

As to `Cc1sc(C(N)=O)c2c1-c1nn(CC(F)(F)F)cc1CC2`, the melting point was in the range of 227 to 228 °C.

In turn, `Cc1c(C)c2c(c(C)c1N)C(c1ccc(C3OCCO3)cc1)CO2` (stereo not given) had a melting point of 125 to 136 °C.

For the compound `O=C1C=CC(=O)C(C(=O)CCn2sc(Cl)cc2=O)=C1`, the melting point fell in the range of 181 to 183 °C.

On to `COCOCc1nc2nccnc2c(=O)[nH]1`, for which the melting point is 161 to 163 °C.

Consider `CC(C(=NO)c1ccc(Cl)cc1Cl)c1cccnc1` (stereo not given), for which the melting point was 163 to 165 °C.

The compound `CC(C)OC(=O)C=Cc1ccc(Br)cc1` returned a melting point of 64 to 66 °C.

Take `COc1cccc(N(C)C(=O)Oc2ccc(Cl)c(C(C)(C)C)c2)n1`: the melting point fell in the range of 54 to 56 °C.

The compound `CCN1CN(C2CC(O)C(CO)O2)C(=O)NC1=O` (stereo not given) came in with a melting point of 162 °C.

The compound `COc1cc(Nc2cccc(-c3ccccc3)c2)ccc1-c1cnco1` showed a melting point of 171 to 173 °C.

In turn, `CC(=O)NC(C)Cc1cc(C)c(C)cc1CC#N` (stereo not given) showed a melting point of 140 to 141 °C.

With `CCCCCCCCCCc1ccnc(C(=O)NCCCCC(=O)O)c1`, the melting point lay within 54 to 56 °C.

`N#CC1c2ccccc2CCc2ccccc21` yielded a melting point of 89 to 90 °C.

`C[C@H](N)C(=O)N[C@@H](C)C(=O)NC(C)(Cc1ccccc1)c1ccccc1` (stereo not given in full) displayed a melting point of 161 to 162 °C.

As to `COc1cccc([C@H](C(C)C)N2CCC(c3noc4cc(F)ccc34)CC2)c1`, the melting point was 40 to 42 °C.

As for `CONC(=N)c1nc(Cl)c(-c2c(F)cc(F)cc2F)c(N2CCCO2)n1`, the melting point lay within 192 to 193 °C.

In turn, `CCc1cc(CC)c(N)cc1N` yielded a melting point of 49 to 51 °C.

In the case of `COc1cc(-c2nc3ccc(O)cc3n2Cc2ccccc2Br)cc(OC)c1OC`, the melting point turned out to be 208 °C.

`N#Cc1cccc(CCC(=O)c2c(O)c3cccnc3n(-c3ccccc3)c2=O)c1` showed a melting point of 219 to 220 °C.

`COc1ccc2c(c1)c(Cc1cc(=O)n(-c3cccc([N+](=O)[O-])c3)[nH]1)c(C)n2C(=O)c1ccc(Cl)cc1` registered a melting point of 95 to 97 °C.

On to `COC(=O)C=Cc1cc(-n2nc(C)n(C(F)F)c2=O)c(Cl)cc1Cl`, for which the melting point lay within 148 to 151 °C.

`CCCCc1cnc2ccccc2c1Cc1ccc(C(=O)O)cc1` returned a melting point of 233 °C.

In the case of `Cc1ncoc1C(C)(O)c1ccsc1` (stereo not given), the melting point lay within 87 to 89 °C.

The compound `CSc1nc(=O)n(Cc2ccccc2)c2ncn(C)c12` registered a melting point of 268 to 270 °C.

For `CCCCCCCCCCCCOC(=O)N[C@@H](CCCCN)C(=O)O`, the melting point is over 260 °C.

For `COc1ccccc1CN[C@H]1CCCN[C@H]1Cc1ccccc1` (relative stereo), the melting point was over 241 °C.

For the compound `Cc1cc(-c2ccc(Cl)c(Cl)c2)nc(-c2cccc(-c3ccc(S(N)(=O)=O)s3)c2)n1`, the melting point was determined as 238 °C.

`COc1c(C)cnc(Cn2c(SC/C=C(\C)CCC=C(C)C)nc3ccccc32)c1C` yielded a melting point of 76 to 80 °C.

Regarding `CCOC(=O)c1ccc2cc(-c3ccc(OC)cc3)ccn2c1=O`, the melting point is 205 to 209 °C.

In turn, `CCOC(=O)c1cc(CC(C(=O)OCC)C(=O)OCC)c2ccccn2c1=O` gave a melting point of 105 to 108 °C.

As to `CCC#CCOc1ccc(C=O)cc1OC`, the melting point was in the range of 47 to 50 °C.

As to `Cc1oc(C2CC=CCC2)nc1CC(=O)O` (stereo not given), the melting point is 86 to 87 °C.

`CCOC(=O)C(=CNc1ccccc1)C(=O)c1cc(F)c(Cl)c([N+](=O)[O-])c1Cl` gave a melting point of 133 to 135 °C.

Consider `COC(=O)c1ccc2c(c1)S(=O)(=O)c1ccccc1C2=O`, for which the melting point lay in the range of 145 to 146 °C.

`COC(=O)c1nc(Cl)c(F)c(N)c1SC` returned a melting point of 75 to 77 °C.

The compound `c1ccc(COc2cccc3c2OCO3)cc1` came in with a melting point of 62 to 63 °C.

On to `CC1(C)CC(=O)C2=C(C1)NC1=C(C(=O)CC(C)(C)C1)C2c1cccc(Oc2ccccc2)c1`, for which the melting point is 205 to 207 °C.

`Cn1c(S(=O)(=O)C(F)(F)C(F)F)nc(-c2ccc(F)cc2)c1-c1ccc(F)cc1` returned a melting point of 122 to 124 °C.

Compound `COC(=O)[C@H](Cc1cccc(Br)c1)NC(=O)OC(C)(C)C` showed a melting point of 60 to 61 °C.

Take `COc1cc(CC(=O)O)ccc1N(C(N)=O)c1ccccc1C(F)(F)F`: the melting point is 218 to 220 °C.

As to `c1ccc2c(c1)CCOC2`, the melting point was 89 to 90 °C.

In turn, `c1ccn(Nc2ccc(N3CCOCC3)nn2)c1` showed a melting point of 228 °C.

As for `CCCc1c(C)c(NC(=O)CC(C)(C)C)c(C)c2c1SCC2c1ccc(C(C)C)cc1` (stereo not given), the melting point was 159 to 160 °C.

Compound `CC(C)(C)CN1C(=O)[C@@H](CC(=O)NCc2nnn[nH]2)O[C@H](c2ccccc2Cl)c2cc(Cl)ccc21` (relative stereo) returned a melting point of 251 to 252 °C.

Take `Cc1oc(-c2ccccc2)nc1CCOc1ccc(C[C@H](NC(=O)C=Cc2cccc(C(F)(F)F)c2)C(=O)O)cc1`: the melting point fell in the range of 214 to 216 °C.

Consider `CCC1=C(C)CN(C(=O)NCC2CCOc3cc(O)c(S(N)(=O)=O)cc32)C1=O` (stereo not given), for which the melting point turned out to be 175 °C.

With `Cc1cc([N+](=O)[O-])ccc1OC12CC3CC(CC(C3)C1)C2`, the melting point was in the range of 89.5 to 91 °C.

Compound `COC(=O)C1CC(O)CN1C(=O)c1cc2c(cc1[N+](=O)[O-])OCO2` (stereo not given) returned a melting point of 166 °C.

`CC(C)(C)C(=O)NS(=O)(=O)c1cccc(N)c1` came in with a melting point of 147 to 150 °C.

Turning to `CCOC(=O)c1cn2c3c(c(-c4cc(C)nc(C)c4)c(F)c(SCc4ccccc4)c3c1=O)OC[C@@H]2C`, the melting point is 175 to 178 °C.

`CCC(=O)NC1C=CCCCC1` (stereo not given) came in with a melting point of 84 °C.

`CCCSc1cc(C(=O)O)cc(S(N)(=O)=O)c1Oc1ccccc1` came in with a melting point of 209 to 210 °C.

As to `COC(=O)C(C#N)C(=O)c1snc(Cl)c1Cl` (stereo not given), the melting point was 119 to 122 °C.

In the case of `O=C1CSCN1CCCCN1CCN(c2ccc(F)cc2)CC1`, the melting point fell in the range of 83 to 85 °C.

For `CC(=O)OC1CN=C(C)NC1` (stereo not given), the melting point lay in the range of 141 to 146 °C.

For `CC(=O)NC[C@H]1CN(c2ccc(/C=C3/C(=O)N(C)c4ccccc43)cc2)C(=O)O1`, the melting point fell in the range of 193 to 195 °C.

`N#Cc1ccc(OCCCCOc2cccc(-c3cc4ccc(C#N)cc4o3)c2)cc1` came in with a melting point of 129 to 130 °C.

In the case of `CCC(=O)c1cc(SC)cc(CNC(=O)CCl)c1O`, the melting point lay within 202 to 204 °C.

Consider `CCN1c2ccccc2NC(=S)c2cccnc21`, for which the melting point lay within 194 to 196 °C.

For the compound `CCCCCCCCCCCCCCOc1ccc(CN2C(=O)c3ccncc3C2=O)cc1`, the melting point was in the range of 76 to 77 °C.

`COc1ccc(S(=O)(=O)N(CCO)c2ccccc2/C=C/c2ccncc2)cc1` came in with a melting point of 198 to 200 °C.

Consider `CN(C)c1nc2n(n1)CC1=CSC(=O)C1=N2`, for which the melting point lay in the range of 295 to 298 °C.

For the compound `CC(C)(C)C(NC(=O)c1cccc(Cl)c1)Nc1c(Nc2cnccn2)c(=O)c1=O` (stereo not given), the melting point lay within 245 to 247 °C.

On to `N#Cc1ccc(-c2csc(N3C(=O)OCC34CC4)n2)cc1`, for which the melting point fell in the range of 219 to 221 °C.

The compound `Cc1cc(NC(=O)CCCCCBr)ccc1O` showed a melting point of 111 to 112 °C.

For the compound `CN1CC(=Cc2ccccc2Cl)C(=O)C(=Cc2ccccc2Cl)C1`, the melting point fell in the range of 148 to 150 °C.

In turn, `N#COc1ccc(C2(c3ccc(OC#N)cc3)OC(=O)c3ccccc32)cc1` came in with a melting point of 130 °C.

`Cc1c(NC(=O)c2ccc(C#CC3(O)CCC3)cc2)ccc2cc(CNCC3CCOCC3)n(C)c12` showed a melting point of 202 to 204 °C.

`O=[N+]([O-])c1cccc2cc(-c3ncns3)[nH]c12`: the melting point fell in the range of 186 to 187 °C.

As to `CCC(C)N(C)C(=O)c1cc2ccccc2c(-c2ccccc2F)n1` (stereo not given), the melting point turned out to be 85 °C.

Compound `O=Cc1ccccc1-c1noc2ccccc12` yielded a melting point of 149 °C.

Turning to `Cc1cc(C(=O)C2=NOC(c3cc(Cl)cc(Cl)c3)(C(F)(F)F)C2)ccc1S(=O)(=O)NCc1ccccn1` (stereo not given), the melting point lay in the range of 57 to 58 °C.

Consider `CS(=O)(=O)c1ccc(-n2cncc2-c2cnc(Cl)c(Cl)c2)cc1`, for which the melting point lay in the range of 192 to 198 °C.

The compound `C=CCNc1cc(C)nc2c(C)n[nH]c12` displayed a melting point of 196 to 198 °C.

With `CS(=O)(=O)c1ccc(C2=C(c3ccccc3)C(=O)OC23CCCC3)cc1`, the melting point lay in the range of 142 to 143 °C.

For the compound `C/C(=C\c1ccc(C(=O)O)cc1)c1ccc2c(c1)C(C)(C)CCS2(=O)=O`, the melting point is 245 to 247 °C.

Take `Cc1ccc(-c2coc(C=CC(=O)NC3CCC(CN(C)C4CCOCC4)CC3)c2)cc1` (stereo not given): the melting point lay in the range of 165 to 167 °C.

In turn, `CCN1C(=O)C(C)(C)C(=O)N(C)c2cc(CN(CCn3ccc4ccsc4c3=O)Cc3cc(C)nn3C)ccc21` showed a melting point of 127 to 128 °C.

For the compound `CCCCc1nc(CO)c(C(N)=O)n1Cc1ccc(-c2ccccc2C(=O)OC(C)(C)C)cc1`, the melting point was 222 to 224 °C.

Consider `Brc1cnc2c(c1)ncn2-c1cccc(-c2cccnc2)c1`, for which the melting point lay in the range of 212 to 213 °C.

`CS(=O)(=O)c1ccc(C(=O)O)c(Cl)c1CO` gave a melting point of 240 to 245 °C.

Regarding `CCn1cc(C(=O)O)c(=O)c2cc(F)c(-n3cccc3)cc21`, the melting point lay in the range of 251 to 252 °C.
